≈ marks a conversion by molar mass, not a printed value. Values belong to the compound of their own block, whether it stands above or below them.
Assays:
Test in all cases: ≥ marks a high value that may be exact or a test limit, other limits are often not marked, values filed in µg/mL are converted to µM
Aureobasidium pullulans = tested on: Aureobasidium pullulans
Bacillus megaterium = tested on: Bacillus megaterium
[1] = tested on: Bacillus subtilis ATCC 23857
[2] = tested on: Candida albicans ATCC 10231
[3] = tested on: Corynebacterium glutamicum ATCC 13032
[4] = tested on: Escherichia coli ATCC 25922
Micrococcus luteus = tested on: Micrococcus luteus
[5] = tested on: Pseudomonas aeruginosa ATCC 27853
[6] = tested on: Staphylococcus aureus ATCC 9144
[7] = tested on: Escherichia coli ATCC 11229
[8] = tested on: Escherichia coli ATCC 35218
[9] = tested on: Klebsiella pneumoniae ATCC 13866
[10] = tested on: Staphylococcus aureus ATCC 25923
[11] = tested on: Staphylococcus aureus ATCC 29213
[12] = tested on: Staphylococcus aureus ATCC 33591
[13] = tested on: Staphylococcus epidermidis ATCC 12228
Bacillus cereus = tested on: Bacillus cereus
[14] = tested on: Batrachochytrium dendrobatidis
[15] = tested on: Candida albicans ATCC 90028
Candida albicans SC5314 = tested on: Candida albicans SC5314
Candida krusei ATCC 6258 = tested on: Candida krusei ATCC 6258
[16] = tested on: Candida parapsilosis ATCC 22019
Escherichia coli = tested on: Escherichia coli
Leuconostoc lactis = tested on: Leuconostoc lactis
Listeria innocua = tested on: Listeria innocua
Pasteurella multocida = tested on: Pasteurella multocida
Staphylococcus aureus = tested on: Staphylococcus aureus
[17] = tested on: Staphylococcus epidermidis
Streptococcus uberis = tested on: Streptococcus uberis
Bacillus subtilis = tested on: Bacillus subtilis
[18] = tested on: Staphylococcus aureus ATCC 2592
[19] = tested on: Acinetobacter baumannii 97830
[20] = tested on: Acinetobacter baumannii 9931
[21] = tested on: Acinetobacter baumannii ATCC 19606
Escherichia coli 780 = tested on: Escherichia coli 780
Escherichia coli 804 = tested on: Escherichia coli 804
[22] = tested on: Klebsiella pneumoniae ATCC 700603
[23] = tested on: Pseudomonas aeruginosa 50
[24] = tested on: Pseudomonas aeruginosa 73
[25] = tested on: Pseudomonas aeruginosa ATCC 9027
[26] = tested on: Staphylococcus aureus 113
Staphylococcus aureus 75 = tested on: Staphylococcus aureus 75

MIC (Aureobasidium pullulans): 11.9 µM (≈ 15.6 µg/mL) | MIC (Bacillus megaterium): 0.761 µM (≈ 0.999 µg/mL) | MIC [1]: 2.97 µM (≈ 3.9 µg/mL) | MIC [2]: 23.8 µM (≈ 31.3 µg/mL) | MIC [3]: 1.52 µM (≈ 2 µg/mL) | MIC [4]: 23.8 µM (≈ 31.3 µg/mL) | MIC (Micrococcus luteus): 23.8 µM (≈ 31.3 µg/mL) | MIC [5]: 190 µM (≈ 250 µg/mL) | MIC [6]: ≥ 95.1 µM
SMILES: C[C@H](NC(=O)[C@H](CCCCN)NC(=O)[C@H](Cc1c[nH]c2ccccc12)NC(=O)[C@H](Cc1c[nH]c2ccccc12)NC(=O)[C@H](Cc1c[nH]c2ccccc12)NC(=O)[C@@H]1CCCN1C(=O)[C@H](CCCCN)NC(=O)[C@H](CCCCN)NC(=O)CN)C(=O)N[C@@H](CCCCN)C(N)=O [GKKPWWWKAK]

MIC (Aureobasidium pullulans): 5.56 µM (≈ 7.79 µg/mL) | MIC (Bacillus megaterium): 2.78 µM (≈ 3.9 µg/mL) | MIC [1]: 5.56 µM (≈ 7.79 µg/mL) | MIC [2]: 11.1 µM (≈ 15.6 µg/mL) | MIC [3]: 5.56 µM (≈ 7.79 µg/mL) | MIC [4]: 44.5 µM (≈ 62.5 µg/mL) | MIC (Micrococcus luteus): 11.1 µM (≈ 15.6 µg/mL) | MIC [5]: 89.1 µM (≈ 125 µg/mL) | MIC [6]: ≥ 89.1 µM
SMILES: C[C@H](NC(=O)[C@H](CCCCN)NC(=O)[C@H](Cc1c[nH]c2ccccc12)NC(=O)[C@H](Cc1c[nH]c2ccccc12)NC(=O)[C@H](Cc1c[nH]c2ccccc12)NC(=O)[C@H](Cc1c[nH]c2ccccc12)NC(=O)[C@H](CCCCN)NC(=O)[C@H](CCCCN)NC(=O)CN)C(=O)N[C@@H](CCCCN)C(N)=O [GKKWWWWKAK]

MIC [7]: ≥ 36 µM | MIC [8]: ≥ 36 µM | MIC [9]: ≥ 36 µM | MIC [5]: 4.5 µM (≈ 8 µg/mL) | MIC [10]: 36 µM (≈ 64 µg/mL) | MIC [11]: 36 µM (≈ 64 µg/mL) | MIC [12]: 4.5 µM (≈ 8 µg/mL) | MIC [13]: 4.5 µM (≈ 8 µg/mL)
SMILES: CC[C@H](C)[C@H](NC(=O)[C@@H](NC(=O)[C@H](CO)NC(=O)CN)C(C)C)C(=O)N[C@@H](CCCN=C(N)N)C(=O)N[C@@H](C)C(=O)N[C@@H](CC(C)C)C(=O)N[C@@H](CCSC)C(=O)N[C@@H](CCCN=C(N)N)C(=O)N[C@@H](CCSC)C(=O)N[C@@H](Cc1ccccc1)C(=O)N[C@@H](C)C(=O)N[C@@H](CCCN=C(N)N)C(=O)N[C@@H](CC(C)C)C(=O)N[C@H](C(=O)NCC(=O)O)C(C)C [GSVIRALMRMFARLVG]

MIC (Bacillus cereus): 13.7 µM (≈ 24.8 µg/mL) | MIC [14]: ≥ 100 µM | MIC [15]: ≥ 70 µM | MIC (Candida albicans SC5314): ≥ 35 µM | MIC (Candida krusei ATCC 6258): ≥ 35 µM | MIC [16]: ≥ 70 µM | MIC (Escherichia coli): 54.7 µM (≈ 99.3 µg/mL) | MIC (Leuconostoc lactis): 1.64 µM (≈ 2.98 µg/mL) | MIC (Listeria innocua): 27.3 µM (≈ 49.6 µg/mL) | MIC (Micrococcus luteus): 27.3 µM (≈ 49.6 µg/mL) | MIC (Pasteurella multocida): 27.3 µM (≈ 49.6 µg/mL) | MIC (Staphylococcus aureus): 13.7 µM (≈ 24.8 µg/mL) | MIC [17]: 6.56 µM (≈ 11.9 µg/mL) | MIC (Streptococcus uberis): 6.56 µM (≈ 11.9 µg/mL)
SMILES: CC[C@H](C)[C@H](NC(=O)[C@@H](NC(=O)CN)C(C)C)C(=O)N[C@@H](CC(=O)O)C(=O)N[C@@H](C)C(=O)N[C@@H](C)C(=O)N[C@@H](CCCCN)C(=O)N[C@@H](CCCCN)C(=O)N[C@@H](Cc1c[nH]c2ccccc12)C(=O)N[C@@H](CC(N)=O)C(=O)N[C@H](C(=O)N[C@@H](CC(C)C)C(=O)N[C@@H](CCCCN)C(=O)N[C@@H](CC(N)=O)C(=O)N[C@@H](CC(C)C)C(=O)N[C@@H](Cc1ccccc1)C(N)=O)C(C)C [GVIDAAKKVVNVLKNLF]

MIC [7]: ≥ 33.9 µM | MIC [8]: ≥ 67.9 µM | MIC [9]: ≥ 33.9 µM | MIC [5]: 4.24 µM (≈ 8 µg/mL) | MIC [10]: 8.48 µM (≈ 16 µg/mL) | MIC [12]: 8.48 µM (≈ 16 µg/mL) | MIC [13]: 8.48 µM (≈ 16 µg/mL)
SMILES: CSCC[C@H](NC(=O)[C@H](CC(C)C)NC(=O)[C@H](CC(C)C)NC(=O)[C@H](CCCCN)NC(=O)[C@H](CCCN=C(N)N)NC(=O)[C@H](CCC(=O)O)NC(=O)[C@H](CC(C)C)NC(=O)[C@H](CC(C)C)NC(=O)[C@H](CO)NC(=O)[C@@H](N)CCSC)C(=O)N[C@@H](Cc1cnc[nH]1)C(=O)N[C@@H](Cc1ccccc1)C(=O)N[C@@H](CC(C)C)C(=O)N[C@@H](CCCN=C(N)N)C(=O)N[C@H](C(=O)O)C(C)C [MSLLERKLLMHFLRV]

MIC (Bacillus subtilis): 2.8 µM (≈ 6.08 µg/mL) | MIC (Candida albicans SC5314): 2.8 µM (≈ 6.08 µg/mL) | MIC [4]: 1.6 µM (≈ 3.47 µg/mL) | MIC [18]: 2.8 µM (≈ 6.08 µg/mL)
SMILES: CC(C)[C@H](N)C(=O)N[C@@H](CCCCN)C(=O)N[C@@H](CCCN=C(N)N)C(=O)N[C@@H](Cc1c[nH]c2ccccc12)C(=O)N[C@@H](CCCCN)C(=O)N[C@@H](CCCCN)C(=O)N[C@@H](Cc1c[nH]c2ccccc12)C(=O)N[C@@H](CCCCN)C(=O)N[C@@H](CCCN=C(N)N)C(=O)N[C@@H](CCCCN)C(=O)N[C@@H](Cc1c[nH]c2ccccc12)C(=O)N[C@@H](CCCCN)C(=O)N[C@@H](CCCCN)C(=O)N[C@@H](Cc1c[nH]c2ccccc12)C(=O)N[C@H](C(N)=O)C(C)C [VKRWKKWKRKWKKWV]

MIC [19]: 16 µM (≈ 25.2 µg/mL) | MIC [20]: 16 µM (≈ 25.2 µg/mL) | MIC [21]: 16 µM (≈ 25.2 µg/mL) | MIC [1]: 4 µM (≈ 6.29 µg/mL) | MIC (Escherichia coli 780): 16 µM (≈ 25.2 µg/mL) | MIC (Escherichia coli 804): ≥ 32 µM | MIC [22]: 16 µM (≈ 25.2 µg/mL) | MIC [23]: 16 µM (≈ 25.2 µg/mL) | MIC [24]: 8 µM (≈ 12.6 µg/mL) | MIC [5]: 4 µM (≈ 6.29 µg/mL) | MIC [25]: 8 µM (≈ 12.6 µg/mL) | MIC [26]: 4 µM (≈ 6.29 µg/mL) | MIC (Staphylococcus aureus 75): 8 µM (≈ 12.6 µg/mL) | MIC [11]: 4 µM (≈ 6.29 µg/mL) | MIC [13]: 2 µM (≈ 3.15 µg/mL)
SMILES: NC(=O)[C@H](Cc1c[nH]c2ccccc12)NC(=O)[C@H](CCCN=C(N)N)NC(=O)[C@H](CCCN=C(N)N)NC(=O)[C@H](Cc1c[nH]c2ccccc12)NC(=O)[C@H](Cc1c[nH]c2ccccc12)NC(=O)[C@H](Cc1c[nH]c2ccccc12)NC(=O)[C@H](CCCN=C(N)N)NC(=O)[C@H](CCCN=C(N)N)NC(=O)[C@@H](N)Cc1c[nH]c2ccccc12 [WRRWWWRRW]

MIC [19]: 8 µM (≈ 10.1 µg/mL) | MIC [20]: 8 µM (≈ 10.1 µg/mL) | MIC [21]: 32 µM (≈ 40.3 µg/mL) | MIC [1]: 4 µM (≈ 5.04 µg/mL) | MIC (Escherichia coli 780): 8 µM (≈ 10.1 µg/mL) | MIC (Escherichia coli 804): 8 µM (≈ 10.1 µg/mL) | MIC [22]: 8 µM (≈ 10.1 µg/mL) | MIC [23]: 16 µM (≈ 20.2 µg/mL) | MIC [24]: ≥ 32 µM | MIC [5]: 16 µM (≈ 20.2 µg/mL) | MIC [25]: 32 µM (≈ 40.3 µg/mL) | MIC [26]: 4 µM (≈ 5.04 µg/mL) | MIC (Staphylococcus aureus 75): 4 µM (≈ 5.04 µg/mL) | MIC [11]: 8 µM (≈ 10.1 µg/mL) | MIC [13]: 2 µM (≈ 2.52 µg/mL)
SMILES: NC(=O)[C@H](Cc1c[nH]c2ccccc12)NC(=O)[C@H](CCCN=C(N)N)NC(=O)[C@H](Cc1c[nH]c2ccccc12)NC(=O)[C@H](Cc1c[nH]c2ccccc12)NC(=O)[C@H](Cc1c[nH]c2ccccc12)NC(=O)[C@H](CCCN=C(N)N)NC(=O)[C@@H](N)Cc1c[nH]c2ccccc12 [WRWWWRW]

Reference: DBAASP
